Experimental data published in the supplement of paper PMC8967900.

System: MOLT-4
Assay: selective drug sensitivity score (sDSS, relative to normal bone marrow) (sDSS (score)); higher = more potent and effective on the cell line relative to normal bone marrow cells
Conditions: 72 h
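Note: ALL cell lines in 384-well plates, five doses spanning 10,000-fold, each plate scaled between vehicle and 100 µmol/L benzalkonium chloride controls, sDSS an adapted area-under-curve metric.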

SMILES	selective drug sensitivity score
CN(C)Cc1ccc(S(=O)(=O)n2ccc(/C=C/C(=O)NO)c2)cc1 [Resminostat] (top concentration 10000 nM)	1.24
COc1cc(OC)c(/C=C/S(=O)(=O)Cc2ccc(OC)c(NCC(=O)O)c2)c(OC)c1 [Rigosertib] (top concentration 10000 nM)	15.9
COc1ccc(CCc2nc3cc(-c4c(C)noc4C)ccc3n2C[C@H](C)N2CCOCC2)cc1Cl [SGC-CBP30] (top concentration 25000 nM)	1.88
CCS(=O)(=O)c1cccc(-c2cc(C(=O)NC3CCN(C)CC3)c(C)c3[nH]c4ncc(C)cc4c23)c1 [TAK-901] (top concentration 1000 nM)	10.6
Nc1nc(NC2CC2)cc(-c2cccc(Cl)c2Cl)n1 [TH588] (top concentration 25000 nM)	9.12
CC(=O)Nc1ccc(C(=O)Nc2ccccc2N)cc1 [Tacedinaline] (top concentration 1000 nM)	0.08
Cn1ncnc1[C@H]1c2n[nH]c(=O)c3cc(F)cc(c23)N[C@@H]1c1ccc(F)cc1 [Talazoparib] (top concentration 1000 nM)	9.68
COc1cccc2c1c(O)c(C(=O)N(C)c1ccc(C(F)(F)F)cc1)c(=O)n2C [Tasquinimod] (top concentration 10000 nM)	-0.42
Nc1nc2[nH]cnc2c(=S)[nH]1 [Thioguanine] (top concentration 10000 nM)	14.2
CC#CC(=O)N1CC[C@@H](n2c(=O)n(-c3ccc(Oc4ccccc4)cc3)c3c(N)ncnc32)C1 [Tirabrutinib] (top concentration 1000 nM)	0
CC(C)C[C@@H](C(=O)N[C@H](C(=O)OC1CCCC1)c1ccccc1)[C@H](O)C(=O)NO [Tosedostat] (top concentration 10000 nM)	-0.54
CS(=O)(=O)c1ccc(-c2cnc(N)c(C(=O)Nc3ccccc3)n2)cc1 [VE-821] (top concentration 10000 nM)	3.94
CNC(=O)c1ccccc1Nc1cc(Nc2ccc(N3CCOCC3)cc2OC)ncc1C(F)(F)F [VS-4718] (top concentration 10000 nM)	1.9
Cc1cccc(-c2[nH]c(CNc3ccccc3F)nc2-c2ccc3ncnn3c2)n1 [Vactosertib (TEW-7197)] (top concentration 2500 nM)	2.3
O=C(/C=C\n1cnc(-c2cc(C(F)(F)F)cc(C(F)(F)F)c2)n1)NNc1ccccn1 [Verdinexor] (top concentration 1000 nM)	9.74
CC[C@@H]1C(=O)N(C)c2cnc(Nc3ccc(C(=O)N[C@H]4CC[C@H](N5CCN(CC6CC6)CC5)CC4)cc3OC)nc2N1C(C)C [Volasertib] (top concentration 1000 nM)	11.3
O=C(CCCCCCC(=O)Nc1ccccc1)NO [Vorinostat] (top concentration 10000 nM)	5.8

System: KARPAS-45
Assay: as above
Conditions: 72 h

SMILES	selective drug sensitivity score
CN(C)Cc1ccc(S(=O)(=O)n2ccc(/C=C/C(=O)NO)c2)cc1 [Resminostat] (top concentration 10000 nM)	8.34
COc1cc(OC)c(/C=C/S(=O)(=O)Cc2ccc(OC)c(NCC(=O)O)c2)c(OC)c1 [Rigosertib] (top concentration 10000 nM)	15.2
COc1ccc(CCc2nc3cc(-c4c(C)noc4C)ccc3n2C[C@H](C)N2CCOCC2)cc1Cl [SGC-CBP30] (top concentration 25000 nM)	4.98
CCS(=O)(=O)c1cccc(-c2cc(C(=O)NC3CCN(C)CC3)c(C)c3[nH]c4ncc(C)cc4c23)c1 [TAK-901] (top concentration 1000 nM)	8.86
Nc1nc(NC2CC2)cc(-c2cccc(Cl)c2Cl)n1 [TH588] (top concentration 25000 nM)	8.12
CC(=O)Nc1ccc(C(=O)Nc2ccccc2N)cc1 [Tacedinaline] (top concentration 1000 nM)	2.08
Cn1ncnc1[C@H]1c2n[nH]c(=O)c3cc(F)cc(c23)N[C@@H]1c1ccc(F)cc1 [Talazoparib] (top concentration 1000 nM)	-2.12
COc1cccc2c1c(O)c(C(=O)N(C)c1ccc(C(F)(F)F)cc1)c(=O)n2C [Tasquinimod] (top concentration 10000 nM)	-0.22
Nc1nc2[nH]cnc2c(=S)[nH]1 [Thioguanine] (top concentration 10000 nM)	15
CC#CC(=O)N1CC[C@@H](n2c(=O)n(-c3ccc(Oc4ccccc4)cc3)c3c(N)ncnc32)C1 [Tirabrutinib] (top concentration 1000 nM)	2.5
CC(C)C[C@@H](C(=O)N[C@H](C(=O)OC1CCCC1)c1ccccc1)[C@H](O)C(=O)NO [Tosedostat] (top concentration 10000 nM)	8.66
CS(=O)(=O)c1ccc(-c2cnc(N)c(C(=O)Nc3ccccc3)n2)cc1 [VE-821] (top concentration 10000 nM)	1.54
CNC(=O)c1ccccc1Nc1cc(Nc2ccc(N3CCOCC3)cc2OC)ncc1C(F)(F)F [VS-4718] (top concentration 10000 nM)	7.1
Cc1cccc(-c2[nH]c(CNc3ccccc3F)nc2-c2ccc3ncnn3c2)n1 [Vactosertib (TEW-7197)] (top concentration 2500 nM)	-0.5
O=C(/C=C\n1cnc(-c2cc(C(F)(F)F)cc(C(F)(F)F)c2)n1)NNc1ccccn1 [Verdinexor] (top concentration 1000 nM)	7.54
CC[C@@H]1C(=O)N(C)c2cnc(Nc3ccc(C(=O)N[C@H]4CC[C@H](N5CCN(CC6CC6)CC5)CC4)cc3OC)nc2N1C(C)C [Volasertib] (top concentration 1000 nM)	19
O=C(CCCCCCC(=O)Nc1ccccc1)NO [Vorinostat] (top concentration 10000 nM)	9.9

System: COG-LL-319h
Assay: as above
Conditions: 72 h

SMILES	selective drug sensitivity score
CN(C)Cc1ccc(S(=O)(=O)n2ccc(/C=C/C(=O)NO)c2)cc1 [Resminostat] (top concentration 10000 nM)	12.2
COc1cc(OC)c(/C=C/S(=O)(=O)Cc2ccc(OC)c(NCC(=O)O)c2)c(OC)c1 [Rigosertib] (top concentration 10000 nM)	4.96
COc1ccc(CCc2nc3cc(-c4c(C)noc4C)ccc3n2C[C@H](C)N2CCOCC2)cc1Cl [SGC-CBP30] (top concentration 25000 nM)	16.4
CCS(=O)(=O)c1cccc(-c2cc(C(=O)NC3CCN(C)CC3)c(C)c3[nH]c4ncc(C)cc4c23)c1 [TAK-901] (top concentration 1000 nM)	10.5
Nc1nc(NC2CC2)cc(-c2cccc(Cl)c2Cl)n1 [TH588] (top concentration 25000 nM)	3.82
CC(=O)Nc1ccc(C(=O)Nc2ccccc2N)cc1 [Tacedinaline] (top concentration 1000 nM)	1.98
Cn1ncnc1[C@H]1c2n[nH]c(=O)c3cc(F)cc(c23)N[C@@H]1c1ccc(F)cc1 [Talazoparib] (top concentration 1000 nM)	21.3
COc1cccc2c1c(O)c(C(=O)N(C)c1ccc(C(F)(F)F)cc1)c(=O)n2C [Tasquinimod] (top concentration 10000 nM)	16.6
Nc1nc2[nH]cnc2c(=S)[nH]1 [Thioguanine] (top concentration 10000 nM)	18.6
CC#CC(=O)N1CC[C@@H](n2c(=O)n(-c3ccc(Oc4ccccc4)cc3)c3c(N)ncnc32)C1 [Tirabrutinib] (top concentration 1000 nM)	3.7
CC(C)C[C@@H](C(=O)N[C@H](C(=O)OC1CCCC1)c1ccccc1)[C@H](O)C(=O)NO [Tosedostat] (top concentration 10000 nM)	3.96
CS(=O)(=O)c1ccc(-c2cnc(N)c(C(=O)Nc3ccccc3)n2)cc1 [VE-821] (top concentration 10000 nM)	11.2
CNC(=O)c1ccccc1Nc1cc(Nc2ccc(N3CCOCC3)cc2OC)ncc1C(F)(F)F [VS-4718] (top concentration 10000 nM)	-5
Cc1cccc(-c2[nH]c(CNc3ccccc3F)nc2-c2ccc3ncnn3c2)n1 [Vactosertib (TEW-7197)] (top concentration 2500 nM)	7.2
O=C(/C=C\n1cnc(-c2cc(C(F)(F)F)cc(C(F)(F)F)c2)n1)NNc1ccccn1 [Verdinexor] (top concentration 1000 nM)	11.3
CC[C@@H]1C(=O)N(C)c2cnc(Nc3ccc(C(=O)N[C@H]4CC[C@H](N5CCN(CC6CC6)CC5)CC4)cc3OC)nc2N1C(C)C [Volasertib] (top concentration 1000 nM)	14.9
O=C(CCCCCCC(=O)Nc1ccccc1)NO [Vorinostat] (top concentration 10000 nM)	11.5

System: SEM cells
Assay: as above
Conditions: 72 h

SMILES	selective drug sensitivity score
CN(C)Cc1ccc(S(=O)(=O)n2ccc(/C=C/C(=O)NO)c2)cc1 [Resminostat] (top concentration 10000 nM)	8.64
COc1cc(OC)c(/C=C/S(=O)(=O)Cc2ccc(OC)c(NCC(=O)O)c2)c(OC)c1 [Rigosertib] (top concentration 10000 nM)	17.3
COc1ccc(CCc2nc3cc(-c4c(C)noc4C)ccc3n2C[C@H](C)N2CCOCC2)cc1Cl [SGC-CBP30] (top concentration 25000 nM)	6.48
CCS(=O)(=O)c1cccc(-c2cc(C(=O)NC3CCN(C)CC3)c(C)c3[nH]c4ncc(C)cc4c23)c1 [TAK-901] (top concentration 1000 nM)	9.36
Nc1nc(NC2CC2)cc(-c2cccc(Cl)c2Cl)n1 [TH588] (top concentration 25000 nM)	8.62
CC(=O)Nc1ccc(C(=O)Nc2ccccc2N)cc1 [Tacedinaline] (top concentration 1000 nM)	4.08
Cn1ncnc1[C@H]1c2n[nH]c(=O)c3cc(F)cc(c23)N[C@@H]1c1ccc(F)cc1 [Talazoparib] (top concentration 1000 nM)	0.78
COc1cccc2c1c(O)c(C(=O)N(C)c1ccc(C(F)(F)F)cc1)c(=O)n2C [Tasquinimod] (top concentration 10000 nM)	-0.42
Nc1nc2[nH]cnc2c(=S)[nH]1 [Thioguanine] (top concentration 10000 nM)	13
CC#CC(=O)N1CC[C@@H](n2c(=O)n(-c3ccc(Oc4ccccc4)cc3)c3c(N)ncnc32)C1 [Tirabrutinib] (top concentration 1000 nM)	1.1
CC(C)C[C@@H](C(=O)N[C@H](C(=O)OC1CCCC1)c1ccccc1)[C@H](O)C(=O)NO [Tosedostat] (top concentration 10000 nM)	0.86
CS(=O)(=O)c1ccc(-c2cnc(N)c(C(=O)Nc3ccccc3)n2)cc1 [VE-821] (top concentration 10000 nM)	2.44
CNC(=O)c1ccccc1Nc1cc(Nc2ccc(N3CCOCC3)cc2OC)ncc1C(F)(F)F [VS-4718] (top concentration 10000 nM)	7.9
Cc1cccc(-c2[nH]c(CNc3ccccc3F)nc2-c2ccc3ncnn3c2)n1 [Vactosertib (TEW-7197)] (top concentration 2500 nM)	4.5
O=C(/C=C\n1cnc(-c2cc(C(F)(F)F)cc(C(F)(F)F)c2)n1)NNc1ccccn1 [Verdinexor] (top concentration 1000 nM)	0.34
CC[C@@H]1C(=O)N(C)c2cnc(Nc3ccc(C(=O)N[C@H]4CC[C@H](N5CCN(CC6CC6)CC5)CC4)cc3OC)nc2N1C(C)C [Volasertib] (top concentration 1000 nM)	21.4
O=C(CCCCCCC(=O)Nc1ccccc1)NO [Vorinostat] (top concentration 10000 nM)	11.3

System: TANOUE
Assay: as above
Conditions: 72 h

SMILES	selective drug sensitivity score
CN(C)Cc1ccc(S(=O)(=O)n2ccc(/C=C/C(=O)NO)c2)cc1 [Resminostat] (top concentration 10000 nM)	-4.16
COc1cc(OC)c(/C=C/S(=O)(=O)Cc2ccc(OC)c(NCC(=O)O)c2)c(OC)c1 [Rigosertib] (top concentration 10000 nM)	-5.04
COc1ccc(CCc2nc3cc(-c4c(C)noc4C)ccc3n2C[C@H](C)N2CCOCC2)cc1Cl [SGC-CBP30] (top concentration 25000 nM)	-3.12
CCS(=O)(=O)c1cccc(-c2cc(C(=O)NC3CCN(C)CC3)c(C)c3[nH]c4ncc(C)cc4c23)c1 [TAK-901] (top concentration 1000 nM)	-4.74
Nc1nc(NC2CC2)cc(-c2cccc(Cl)c2Cl)n1 [TH588] (top concentration 25000 nM)	-0.58
CC(=O)Nc1ccc(C(=O)Nc2ccccc2N)cc1 [Tacedinaline] (top concentration 1000 nM)	-0.02
Cn1ncnc1[C@H]1c2n[nH]c(=O)c3cc(F)cc(c23)N[C@@H]1c1ccc(F)cc1 [Talazoparib] (top concentration 1000 nM)	-4.92
COc1cccc2c1c(O)c(C(=O)N(C)c1ccc(C(F)(F)F)cc1)c(=O)n2C [Tasquinimod] (top concentration 10000 nM)	1.58
Nc1nc2[nH]cnc2c(=S)[nH]1 [Thioguanine] (top concentration 10000 nM)	5.54
CC#CC(=O)N1CC[C@@H](n2c(=O)n(-c3ccc(Oc4ccccc4)cc3)c3c(N)ncnc32)C1 [Tirabrutinib] (top concentration 1000 nM)	0
CC(C)C[C@@H](C(=O)N[C@H](C(=O)OC1CCCC1)c1ccccc1)[C@H](O)C(=O)NO [Tosedostat] (top concentration 10000 nM)	-5.24
CS(=O)(=O)c1ccc(-c2cnc(N)c(C(=O)Nc3ccccc3)n2)cc1 [VE-821] (top concentration 10000 nM)	0.64
CNC(=O)c1ccccc1Nc1cc(Nc2ccc(N3CCOCC3)cc2OC)ncc1C(F)(F)F [VS-4718] (top concentration 10000 nM)	-5
Cc1cccc(-c2[nH]c(CNc3ccccc3F)nc2-c2ccc3ncnn3c2)n1 [Vactosertib (TEW-7197)] (top concentration 2500 nM)	-0.5
O=C(/C=C\n1cnc(-c2cc(C(F)(F)F)cc(C(F)(F)F)c2)n1)NNc1ccccn1 [Verdinexor] (top concentration 1000 nM)	-6.96
CC[C@@H]1C(=O)N(C)c2cnc(Nc3ccc(C(=O)N[C@H]4CC[C@H](N5CCN(CC6CC6)CC5)CC4)cc3OC)nc2N1C(C)C [Volasertib] (top concentration 1000 nM)	-7
O=C(CCCCCCC(=O)Nc1ccccc1)NO [Vorinostat] (top concentration 10000 nM)	-2.6
